From publication PMC8268575 (International Journal of Molecular Sciences, 2021)
Entries after “also recorded” stand apart in the source; their conditions may differ.

What was measured:
recombinant human PREP [1] = biological target: T1, recombinant human PREP (Homo sapiens, UniProt P48147); test: Cleavage by recombinant PREP, MALDI-TOF/TOF; details: pH 7.4 (0.1 M potassium phosphate, 1 mM EDTA, 5 mM DTT), 100 µM substrate, 0 s to 1 h
T1 sequence (P48147 1-710): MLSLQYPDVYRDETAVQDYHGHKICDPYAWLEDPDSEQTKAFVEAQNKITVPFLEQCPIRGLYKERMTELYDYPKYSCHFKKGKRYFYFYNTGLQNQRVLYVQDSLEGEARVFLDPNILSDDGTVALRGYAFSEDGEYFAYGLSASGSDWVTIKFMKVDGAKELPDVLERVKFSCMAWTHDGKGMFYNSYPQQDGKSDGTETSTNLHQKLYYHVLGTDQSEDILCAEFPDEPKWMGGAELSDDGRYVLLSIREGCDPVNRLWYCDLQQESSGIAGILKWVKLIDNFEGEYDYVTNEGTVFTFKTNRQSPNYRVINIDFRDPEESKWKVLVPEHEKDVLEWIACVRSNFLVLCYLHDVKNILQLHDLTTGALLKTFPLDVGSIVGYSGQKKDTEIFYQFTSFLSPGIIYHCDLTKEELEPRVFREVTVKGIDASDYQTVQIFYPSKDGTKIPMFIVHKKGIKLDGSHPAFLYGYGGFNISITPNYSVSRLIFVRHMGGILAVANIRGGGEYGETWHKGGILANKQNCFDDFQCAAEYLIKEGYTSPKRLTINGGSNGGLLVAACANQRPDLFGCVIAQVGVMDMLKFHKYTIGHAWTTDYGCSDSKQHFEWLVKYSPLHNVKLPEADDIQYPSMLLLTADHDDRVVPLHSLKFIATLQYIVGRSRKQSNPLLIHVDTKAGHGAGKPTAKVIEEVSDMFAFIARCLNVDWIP
Experimental: Supplementary Material File S3. Cleavage by recombinant PREP
Recombinant human PREP, expressed in BL21 (DE3) cells as previously described, was […]
(Laboratory for Medicinal Chemistry, University of Antwerp) or vehicle control at pH 7.4 (0.1 M potassium phosphate, 1 mM EDTA and 5 mM DTT). 100 μM substrate ((pyr)-apelin-13, (pyr)-apelin-13(1-12), Ang II or α-MSH 1-13) or vehicle control (PBS) was added. The reaction was stopped by acidification (pH<3) with 0.1% TFA after different time periods (0 s, 30 s, 1 min, 5 min, 15 min, 30 min or 1 h) and samples were stored at -80 °C.
A search for product peaks of the different peptides was conducted.
1. Van Elzen, R.; Schoenmakers, E.; Brandt, I.; Van Der Veken, P.; Lambeir, A.M.
Ligand-induced conformational changes in prolyl oligopeptidase: A kinetic approach.

HUVEC = test: Substrate cleavage in HUVEC, supernatant analysed by MALDI-TOF/TOF; format: in vitro ADME, human; details: PRCP-inhibited (1 µM compound 8o) or PRCP/ACE2-inhibited HUVEC compared with control or ACE2-inhibited (1 µM DX600) HUVEC, 100 µM (pyr)-apelin-13, n = 4
Experimental: (§1) The experiment was independently conducted 4 times. […] The supernatants were desalted and concentrated by use of C18 ZipTips (Merck-Millipore, Burlington, MA, USA) and eluted directly on the MALDI target in 70% acetonitrile/0.1% TFA. Subsequently, a MALDI matrix solution of 2.5 mg/mL α-cyano-4-hydroxycinnamic acid in 70% acetonitrile/0.1% TFA was applied on each spot, air-dried at room temperature, and the target was introduced into a 4800 plus MALDI TOF/TOF^TM Analyzer. Mass spectrometry (MS) spectra (mass range: 600–4000 Da) were acquired in positive reflector mode with a laser intensity of 5000. To confirm the identity of the most important peptides, MS/MS spectra were generated by use of collision induced dissociation with a laser intensity of 5500. Calibration was done during analysis using the 6-peptide mixture (AB Sciex, Framingham, MA, USA). Mass spectra were generated by use of the 4000 Series Explorer and analyzed by mMas. […] The ratio of the peak intensity of the cleaved substrate to the peak intensity of the intact substrate is an indication for the C-terminal cleavage of the substrates. To check for additional cleavage sites, a search for other product peaks was completed. Statistical analysis was performed using SPSS software version 27 (IBM). Two-way ANOVA analysis was conducted to examine the effect of the two independent variables (treatment duration and treatment option) on the ratio of the peak intensities.

HAoEC = test: Substrate cleavage in HAoEC, supernatant analysed by MALDI-TOF/TOF; format: in vitro ADME, human; details: all inhibitor-treated HAoEC (1 µM compound 8o, 1 µM DX600 or both) compared with control, 100 µM (pyr)-apelin-13, n = 4
Experimental: as §1

[2] = HAoEC, 10,000 cells per well, in assay medium; supernatant analysed; details: human, 37 °C, up to 24 h
[3] = HUVEC, 10,000 cells per well, in assay medium; supernatant analysed; details: human, 37 °C, up to 24 h
PRCP [4] = test: PRCP activity (RP-HPLC, Z-Pro-Phe) after pro-inflammatory stimulation of HUVEC; format: cell-based, human; details: 16 h, 200 ng/mL LPS, 10 ng/mL TNFα or 5 ng/mL IL-1β; for PRCP activity in the cell lysate versus vehicle control: Kruskal-Wallis p = 0.066; for PRCP activity in the supernatant versus vehicle control: n = 4–6
Experimental: (§2) HUVEC and HAoEC were seeded in a 6-well plate at a density of 2.5 × 10^5 cells per well in 2 mL full medium for 24 h. Subsequently, cells were treated with 200 ng/mL LPS, 10 ng/mL TNFα, 5 ng/mL IL-1β, or vehicle control for 16 h. Subsequently, supernatants were collected and concentrated four times for PRCP activity measurements using Centriprep® Centrifugal Filter Devices, 30 K (Merck-Millipore, Burlington, MA, USA). For PRCP activity measurement, cells were collected per well and lysed 1 h on ice in 75 µL lysis buffer (1% octylglucoside, 10 mM EDTA, 70 µg/mL aprotinin, 50 mM Tris pH 8.3). Appropriate stimulation was confirmed by determining interleukin-6 (IL-6) and interleukin-8 (IL-8) levels in the 16 h aspirate by use of ELISA (Supplementary Materials File S7).
(§3) PRCP activity was measured in the cellular supernatant and cell lysate using a validated high-performance liquid chromatography (HPLC) method as described previously. Ten µL of each sample was incubated in duplicate with 75 µL 8 mM Z-Pro-Phe at pH 5 (0.1 M Natrium Acetate, 10 mM EDTA) for 2 h at 37 °C. To stop the enzymatic reaction, 75 µL stop solution (10% perchloric acid and 20% acetonitrile in purified water) was added and samples were centrifuged at 12,000× g for 10 min at 4 °C. Ten µL of the supernatant was injected into a reversed phase HPLC system (Shimadzu, Kioto, Japan) and the enzymatically formed Z-Pro was determined by its UV absorbance at 210 nm. Quantification was performed by peak height measurements. The PRCP activity is expressed as units per gram (U/g) protein for the cell lysate or units per liter (U/L) for the supernatant. One unit defines the amount of enzyme that hydrolyses 1 μmol of substrate per minute. Protein concentrations were determined via the Bradford method with bovine serum albumin as the standard protein. Statistical analyses were performed using SPSS software version 27 (IBM) and graphs were designed using Graphpad Prism 9 software. Differences in PRCP activity in the cell lysate and supernatant between control and stimulated cells were evaluated by Kruskal-Wallis and Mann-Whitney U-tests. Manual Bonferroni-correction was assessed for multiple testing based on relevant pairwise comparisons. Significant results are indicated with an asterisk (* p < 0.05, ** p < 0.01).

ACE2 [5] = test: ACE2 activity (Mca-Ala-Pro-Lys(Dnp)-OH) after pro-inflammatory stimulation of HAoEC; format: cell-based, human; details: 16 h, 200 ng/mL LPS, 10 ng/mL TNFα or 5 ng/mL IL-1β, n = 4-6, p = 0.422
Experimental: (§4) Supplementary Material File S2. ACE2 activity measurement
(§5) HUVEC and HAoEC were seeded in a 6-well plate at a density of 2.5x10^5 cells per well in 2 mL full medium for 24 h. Cells were treated with 200 ng/mL LPS, 10 ng/mL TNFα, 5 ng/mL IL-1β or vehicle control for 16 h. Supernatants were collected and concentrated four times using Centriprep Centrifugal Filter Devices, 30 K (Merck-Millipore). Cells were collected per well and lysed 1 h on ice in 75 µL lysis buffer (1% octyl glucoside, 10 mM EDTA, 70 µg/mL aprotinin, 50 mM Tris pH 8.3).
(§6) ACE2 activity was measured using the substrate Mca-Ala-Pro-Lys(Dnp)-OH (Bachem).
(§7) Samples were incubated with 100 µM of the substrate at pH 6.5 (50 mM MES, 300 mM NaCl, 10 µM Zn Cl2, 0.01% Triton X-100) in a black 96-well plate and ACE2 activity was measured kinetically for 1 h at 37 °C (λex=320 nm, λem=405 nm), using the Infinite 200 microplate reader (Tecan) and the Magellan software was used to process the data. Concentration of the generated Mca-Ala-Pro was determined by means of a standard curve. Specificity was determined by pre-incubating the samples for 15 min with 1 µM of the specific ACE2-inhibitor DX600. The ACE2 activity is expressed as units per gram (U/g) protein for the cell lysate. […] Protein concentrations were determined via the Bradford method with BSA as the standard protein. […]

PRCP [6] = test: PRCP activity (RP-HPLC, Z-Pro-Phe) after pro-inflammatory stimulation of HAoEC; format: cell-based, human; details: 16 h, 200 ng/mL LPS, 10 ng/mL TNFα or 5 ng/mL IL-1β; for PRCP activity in the cell lysate versus vehicle control: Kruskal-Wallis p = 0.563; for PRCP activity in the supernatant versus vehicle control: n = 4–6
Experimental: as §2, §3

ACE2 [7] = test: ACE2 activity (Mca-Ala-Pro-Lys(Dnp)-OH) after pro-inflammatory stimulation of HUVEC; format: cell-based, human; details: 16 h, 200 ng/mL LPS, 10 ng/mL TNFα or 5 ng/mL IL-1β, n = 4-6, p = 0.098
Experimental: as §4, §5, §6, §7

[8] = tested on: Angiotensin-converting enzyme 2 (ACE2, EC 3.4.17.23); details: cited from earlier work
[9] = human plasma of healthy volunteers; details: cited from earlier work
human plasma = details: cited from earlier work
PRCP [10] = test: in vitro; details: cited from earlier work
rat plasma = details: cited from earlier work
Recombinant human PREP [11] = test: Recombinant human PREP at pH 7.4 (0.1 M potassium phosphate, 1 mM EDTA and 5 mM DTT); details: up to 1 h
mouse plasma = details: cited from earlier work
[12] = 24 h cellular supernatant of HUVEC (assay medium), in the absence of cells; details: human, 37 °C, up to 1 h

Molecule | cleaved bond [2] | cleaved bond [3] | PRCP activity in the cell lysate versus vehicle control (PRCP [4]) | PRCP activity in the supernatant versus vehicle control (PRCP [4]) | ACE2 activity in the cell lysate versus vehicle control (ACE2 [5]) | PRCP activity in the cell lysate versus vehicle control (PRCP [6]) | PRCP activity in the supernatant versus vehicle control (PRCP [6]) | ACE2 activity in the cell lysate versus vehicle control (ACE2 [7]) | also measured
CSCC[C@H](NC(=O)[C@@H]1CCCN1C(=O)CNC(=O)[C@H](CCCCN)NC(=O)[C@H](Cc1c[nH]cn1)NC(=O)[C@H](CO)NC(=O)[C@H](CC(C)C)NC(=O)[C@H](CCCNC(=N)N)NC(=O)[C@@H]1CCCN1C(=O)[C@H](CCCNC(=N)N)NC(=O)[C@@H]1CCC(=O)N1)C(=O)N1CCC[C@H]1C(=O)O [(pyr)-apelin-13(1–12)] | – | – | – | – | – | – | – | – | Cleavage by recombinant human PREP (recombinant human PREP [1]): did not cleave; (pyr)-apelin-13(1–12) detected in supernatant after 24 h (HUVEC): Significantly less; (pyr)-apelin-13(1–12) observed in supernatant after 24 h (HAoEC): significantly less
Ac-SYSMEHFRWGKPV-NH₂ | P12-V13 | P12-V13 | – | – | – | – | – | – | fragment found [2]: α-MSH 1-10; fragment found [3]: α-MSH 1-10
IL-1β: pro-inflammatory stimulus, 5 ng/mL | – | – | no difference | increase in PRCP activity | No difference | no difference | increase in PRCP activity | No difference | –
TNFα | – | – | no difference | increase in PRCP activity | No difference | no difference | increase in PRCP activity | No difference | –
pERPRLSHKGPMPF | P12-Phe13, 8 h; also recorded: Ser6-His7, 8 h | P12-Phe13, 24 h | – | – | – | – | – | – | cleaved bond [8]: P12-Phe13; fragment found [9]: (pyr)-apelin-13(1-6); cleaved bond (human plasma): Leu5-Ser6, first_seen; also recorded: Ser6-His7; cleaved bond (PRCP [10]): P12-Phe13; cleaved bond (rat plasma): Leu5-Ser6, first_seen; also recorded: Ser6-His7; not cleaved [3]: In HUVEC, this product could not be detected; not cleaved (Recombinant human PREP [11]): Only the peaks corresponding with the intact peptides could be observed; cleaved bond (mouse plasma): Leu5-Ser6, first_seen; also recorded: Ser6-His7; cleaved bond [12]: P12-Phe13, 1 h
